Test results taken from patent US11707557B2, “Compositions and devices incorporating water-insoluble therapeutic agents and methods of the use thereof” (COOK MEDICAL TECHNOLOGIES LLC, priority 2014, dated 2023).
Values after ≈ are worked out from the molar mass of the structure shown.

How the values were obtained:
[1] = physchem
Method: (§3) PBS (EGCG) or water (tannic acid) was added and the final solution filtered through a 0.22 micron filter to remove any particulates. The solutions were analyzed for drug concentration using HPLC.
(§4) PBS (EGCG) or water (tannic acid) was added and the final solution filtered through a 0.22 micron filter to remove particulates. The solution was then analyzed for drug concentration using absorbance spectroscopy at 450 nm.
(§5) PBS (EGCG) or water (tannic acid) was added and the final solution was filtered through a 0.22 micron filter to remove any particulates and the solution was analyzed for drug concentration using HPLC.
(§6) PBS (EGCG) or water (tannic acid) was added and the final solution filtered through a 0.22 micron filter to remove any particulates and the solution was analyzed for drug concentration using HPLC.
(§7) PBS (EGCG) or water (Tannic acid) was added and the final solution was filtered through a 0.22 um filter to remove any particulates and the solution was analyzed for drug concentration using HPLC.
(§8) Method: drug and EGCG or tannic acid were dried down from acetonitrile (or methanol for tannic acid) solutions at various drug to EGCG or tannic acid ratios. PBS (EGCG) or water (Tannic acid pH adjusted to 7) was added and the final solution was filtered through a 0.22 um filter to remove any particulates and the solution was analyzed for drug concentration using HPLC methods.

[2] = Rate of paclitaxel release from EGCG carrier coatings on balloon catheters; type: physicochemical
Method: A balloon catheter was inflated and revolved along its horizontal axis. […] The drug/EGCG solution was slowly pipetted onto the balloon using 25 microliters at a time and dried with gentle heat from an electric blowdryer. The catheter assembly was then left overnight to dry. To measure the drug release the catheter was inflated and immersed in 5 ml of PBS-albumin buffer at pH 7.4 for a specific time with mild revolution to create movement. The catheter was then removed and placed in a new tube containing 5 ml of PBS-Album in for the second drug release time point. One ml of dichloromethane was added to each 5 ml of PBS and the tube shaken. The contents were allowed to settle and the top liquid aspirated off. The dichloromemethane was allowed to dry and then the solids were redissolved in 60/40 acetonitrile/water v/v and drug quantitated by HPLC analysis (c18 column, 58/5/37 acetonitrile/methanol/water at 1 ml/min flow rate with detection at 232 nm)

[3] = tested on: Human umbilical vein endothelial cells (HUVEC); assay: Accumulation of docetaxel in HUVEC cells and effect of ultrasound; type: cell-based
Description: Human umbilical vein endothelial cells (HUVEC) and the associated culture media were obtained from Lonza Chemicals (Basel, Switzerland). All cells were applied to 48 well plates in respective media at a concentration of 5000 cells per well or filter. The cells were allowed to equilibrate for 3 days at which time they became approximately 80% confluent. In the 48 well plates, only 24 wells were used per plate so that wells with cells appeared in a checkerboard pattern.
After 2 days, cells were ready for drug incubation with or without ultrasound treatment. The drug solutions (including radiolabelled docetaxel) were applied to the cells (0.5 ml) for 2 hours. Some cells were then ultrasonicated. Briefly, cells received a single 10-s burst of ultrasound at 4 MHz with a power density of 30 W/cm^2.
After ultrasound treatment, the drug solution was immediately removed and all cells were washed three times with 500 ul of HBSS. The amount of docetaxel retained in the cells was determined by lysing the cells in 200 ul of lysis buffer (2% Triton X100 containing 33% DMSO) and quantitation by liquid scintillation counting.

[4] = tested on: MDCK cells; assay: Uptake and transport of docetaxel through MDCK cell monolayers (transwell); type: in vitro ADME, canine; details: EGCG-docetaxel solution 250 micrograms/ml, 2 hours 37° C., compared to tween or diblock copolymer micellar solutions
Description: (§1) The canine kidney cells, known as MDCK cells, are a non cancer proliferating cell line from canine kidneys. The MDR derivative of these cells is a multi-drug resistant version. The cell lines MDCK and MDCK-MDR are routinely used in the field of drug resistance because in the MDCK cells drugs can accumulate and kill the cells whereas the MDR cells contain drug efflux proteins that efflux the drug so that much higher drug doses are needed to maintain intracellular concentrations sufficient to kill these cells. […]
(§2) MDCK cells were seeded at 10000 cells per transwell membrane (Becton and Dickenson: 0.3 microns, 1 cm diameter) and grown for one week until a continuous monolayer was present. Drug at 250 micrograms/ml (doped with ^3H docetaxel, with carrier (tween, diblock (2000 40-60) PDLLA-mepeg or EGCG), all in hanks buffer, were added to the top well (0.4 ml) with 1.2 ml of hanks buffer in the base well. The wells were incubated at 37° C. for two hours. The transwells were then disassembled and the amount of drug in the base reservoir (transported through the cells) or in the cells (determined by dissolution of the filter after 3 washes in hanks buffer) was determined by liquid scintillation counting.

[5] = tested on: mdck-mdr cells; assay: Uptake and transport of docetaxel through MDCK-MDR cell monolayers (transwell); type: in vitro ADME, canine; details: EGCG-docetaxel solution 250 micrograms/ml, 2 hours 37° C., compared to tween or diblock copolymer micellar solutions
Description: as §1, §2

[6] = Solubility of drug in EGCG or tannic acid solutions (dried down, PBS or water added, 0.22 micron filtered, HPLC or absorbance)
Method: as §3, §4, §5, §6, §7, §8

| SMILES | solubility ([1]; aqueous with cosolvent or surfactant or cyclodextrin, thermodynamic from solid, drug concentration solubilised at maximum EGCG concentration) [µg/mL] | solubility ([1]; aqueous with cosolvent or surfactant or cyclodextrin, thermodynamic from solid, drug concentration solubilised at maximum tannic acid concentration) [µg/mL] | solubility ([1]; water, free solubility in water) [µg/mL] | release of paclitaxel from coated balloon catheter ([2]; EGCG alone (zero percentage diblock copolymer), PBS-albumin pH 7.4) | time to complete release of paclitaxel ([2]; EGCG with 10 percentage diblock copolymer) [min] | time to complete release of paclitaxel ([2]; EGCG with 20 percentage diblock copolymer) [min] | release rate of paclitaxel ([2]; EGCG with 50% diblock copolymer) | effect of ultrasound on uptake of drug into cells ([3]; 10-s burst, 4 MHz, 30 W/cm^2, all formulations) | uptake of docetaxel from ECGC formulations relative to micellar formulation ([3]; 2 hours incubation) | amount of docetaxel accumulated in the cells or transported through the cells [4] | amount of docetaxel accumulated in the cells or transported through the cells [5] | solubility ([6]; EGCG solution (200 mg/ml) in PBS, aqueous with cosolvent or surfactant or cyclodextrin, thermodynamic from solid, drug concentration solubilised at maximum EGCG concentration, EGCG 200 mg per ml, PBS) [µg/mL] | effect of temperature on solubility ([6]; EGCG solutions) | stability of EGCG solutions of the drug ([6]; EGCG solutions, 24 hours) | stability of tannic acid solutions of the drug ([6]; tannic acid concentrations above 150 mg/ml, 24 hrs) | effect of temperature on solubility ([6]; tannic acid solutions, 37° C. or 50° C. compared to 23° C.) | solubility ([6]; water, free solubility in water, no EGCG or tannic acid) [µg/mL] |
| --- | --- | --- | --- | --- | --- | --- | --- | --- | --- | --- | --- | --- | --- | --- | --- | --- | --- |
| CC(=O)O[C@H]1C(=O)[C@@]2(C)[C@H]([C@H](OC(=O)c3ccccc3)[C@]3(O)C[C@H](OC(=O)[C@H](O)[C@@H](NC(=O)c4ccccc4)c4ccccc4)C(C)=C1C3(C)C)[C@]1(OC(C)=O)CO[C@@H]1C[C@@H]2O [paclitaxel] | ~1000 (≈ 1170 µM) | ~4800 (≈ 5620 µM) | 1 (≈ 1.17 µM) | all paclitaxel was released in one minute | ≤ 2 | ≤ 2 | slowed the release rate dramatically |  |  |  |  |  |  |  |  |  |  |
| CC(=O)O[C@@]12CO[C@@H]1C[C@H](O)[C@@]1(C)C(=O)[C@H](O)C3=C(C)[C@@H](OC(=O)[C@H](O)[C@@H](NC(=O)OC(C)(C)C)c4ccccc4)C[C@@](O)([C@@H](OC(=O)c4ccccc4)[C@H]21)C3(C)C [docetaxel] |  |  |  |  |  |  |  | increased the uptake | approximately 4 fold | increased | increased | ~1500 (≈ 1860 µM) | no effect of temperature | stable over 24 hours | not stable over 24 hrs | no effect of temperature | 5 to 7 (≈ 6.19 to 8.66 µM) |
